This passage reports IC50 results from patent US9233968B1, “Kinase inhibitors” (Allergan, Inc., priority 2014, dated 2016).

One assay concerns the target VEGFR2 (Homo sapiens (Human), UniProt P35968). Nature of the assay: VEGFR2 Cellular Assay (FLIPR, VEGF induced intracellular calcium in HUVEC). Format: cell-based. The conditions noted are these: VEGF165 stimulation 10 ng/mL, read-out: Receptor VEGFR2 IC50. The procedure: (§1) VEGFR2 Cellular Assay Automated FLIPR (Fluorometric Imaging Plate Reader) technology was used to screen for inhibitors of VEGF induced increases in intracellular calcium levels in fluorescent dye loaded endothelial cells. HUVEC (human umbilical vein endothelial cells) (Clonetics) were seeded in 384-well fibronectin coated black-walled plates overnight at 37° C./5% CO2. Cells were loaded with calcium indicator Fluo-4 for 45 minutes at 37° C. Cells were washed 2 times (Elx405, Biotek Instruments) to remove extracellular dye. For screening, cells were pre-incubated with test agents for 30 minutes, at a single concentration (10 μM) or at concentrations ranging from 0.0001 to 10.0 μM followed by VEGF165 stimulation (10 ng/mL). […] Data were generated by determining max-min fluorescence levels for unstimulated, stimulated, and drug treated samples. IC50 values for test compounds were calculated from % inhibition of VEGF stimulated responses in the absence of inhibitor.
In general terms: Calcium assays in cells follow changes in intracellular calcium, usually with a dye or a luminescent sensor.

A further assay has as its target PDGFRβ (Homo sapiens (Human), UniProt P09619). Nature of the assay: PDGFRβ Cellular Assay (FLIPR, PDGF-induced intracellular calcium in NHDF-Ad). Format: cell-based. The settings on record: PDGF-BB stimulation 30 ng/mL, read-out: Receptor PDGFRβ IC50. The method, then: as §1, with “Automated” for “VEGFR2 Cellular Assay Automated”, “of PDGF-induced” for “of VEGF induced”, “cells. NHDF-Ad (Normal Human Dermal Fibroblasts, Adult; Lonza)” for “cells. HUVEC (human umbilical vein endothelial cells) (Clonetics)”, “by PDGF-BB” for “by VEGF165”, “stimulation (30” for “stimulation (10”, “of PDGF-BB” for “of VEGF”

Assay [1] deals with VEGFR2 (cytoplasmic domain KDR protein) (Homo sapiens (Human), UniProt P35968). Nature of the assay: VEGFR2 Kinase Assay (biochemical KDR kinase assay). The conditions noted are these: 2.7 μM ATP, poly-Glu-Tyr substrate; read-out: Enzyme VEGFR2 IC50. The procedure: Biochemical KDR kinase assays were performed in 96 well microtiter plates that were coated overnight with 75 μg/well of poly-Glu-Tyr (4:1) in 10 mM Phosphate Buffered Saline (PBS), pH 7.4. The coated plates were washed with 2 mls per well PBS+0.05% Tween-20 (PBS-T), blocked by incubation with PBS containing 1% BSA, then washed with 2 mls per well PBS-T prior to starting the reaction. Reactions were carried out in 100 μL reaction volumes containing 2.7 μM ATP in kinase buffer (50 mM Hepes buffer pH 7.4, 20 mM MgCl2, 0.1 mM MnCl2 and 0.2 mM Na3VO4). […] Reactions were initiated by the addition 20 μl per well of kinase buffer containing 200-300 ng purified cytoplasmic domain KDR protein (BPS Bioscience, San Diego, Calif.). Following a 15 minute incubation at 30° C., the reactions were washed 2 mls per well PBS-T. 100 μl of a monoclonal anti-phosphotyrosine antibody-peroxidase conjugate diluted 1:10,000 in PBS-T was added to the wells for 30 minutes. Following a 2 mls per well wash with PBS-Tween-20, 100 μl of O-Phenylenediamine Dihydrochloride in phosphate-citrate buffer, containing urea hydrogen peroxide, was added to the wells for 7-10 minutes as a colorimetric substrate for the peroxidase. The reaction was terminated by the addition of 100 μl of 2.5N H2SO4 to each well and read using a microplate ELISA reader set at 492 nm. IC50 values for compound inhibition were calculated directly from graphs of optical density (arbitrary units) versus compound concentration following subtraction of blank values.
VEGFR2 (cytoplasmic domain KDR protein), sequence (P35968 786-1356): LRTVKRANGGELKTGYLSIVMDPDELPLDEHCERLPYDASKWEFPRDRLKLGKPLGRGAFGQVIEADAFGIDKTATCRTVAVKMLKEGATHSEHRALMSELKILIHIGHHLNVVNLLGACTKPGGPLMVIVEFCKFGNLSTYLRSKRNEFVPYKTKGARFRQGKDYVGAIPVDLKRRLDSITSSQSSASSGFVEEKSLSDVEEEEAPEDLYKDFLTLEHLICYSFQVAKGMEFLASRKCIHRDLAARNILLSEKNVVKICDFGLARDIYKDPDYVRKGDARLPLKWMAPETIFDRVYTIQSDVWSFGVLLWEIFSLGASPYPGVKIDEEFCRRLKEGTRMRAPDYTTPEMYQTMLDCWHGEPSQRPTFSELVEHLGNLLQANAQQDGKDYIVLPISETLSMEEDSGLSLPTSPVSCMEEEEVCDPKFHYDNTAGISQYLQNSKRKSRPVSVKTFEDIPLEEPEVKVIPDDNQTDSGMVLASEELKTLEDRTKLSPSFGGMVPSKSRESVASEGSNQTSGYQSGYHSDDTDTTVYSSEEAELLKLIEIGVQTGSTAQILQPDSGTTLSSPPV

Assay [2] addresses PDGFRβ (cytoplasmic domain PDGFR-b protein) (Homo sapiens (Human), UniProt P09619). The assay can be described thus: PDGFRβ Kinase Assay. It is filed as biochemical. The settings on record: 36 μM ATP, poly-Glu-Tyr substrate; read-out: Enzyme PDGFRβ IC50. The procedure:
Biochemical PDGFRβ kinase assays were performed in 96 well microtiter plates that were coated overnight with 75 μg of poly-Glu-Tyr (4:1) in 10 mM Phosphate Buffered Saline (PBS), pH 7.4. The coated plates were washed with 2 mls per well PBS+0.05% Tween-20 (PBS-T), blocked by incubation with PBS containing 1% BSA, then washed with 2 mls per well PBS-T prior to starting the reaction. […] Reactions were initiated by the addition 20 μl per well of kinase buffer containing 200-300 ng purified cytoplasmic domain PDGFR-b protein (Millipore). Following a 60 minute incubation at 30° C., the reactions were washed 2 mls per well PBS-T. 100 μl of a monoclonal anti-phosphotyrosine antibody-peroxidase conjugate diluted 1:10,000 in PBS-T was added to the wells for 30 minutes. Following a 2 mls per well wash with PBS-Tween-20, 100 μl of O-Phenylenediamine Dihydrochloride in phosphate-citrate buffer, containing urea hydrogen peroxide, was added to the wells for 7-10 minutes as a colorimetric substrate for the peroxidase. […] IC50 values for compound inhibition were calculated directly from graphs of optical density (arbitrary units) versus compound concentration following subtraction of blank values.

PDGFRβ (cytoplasmic domain PDGFR-b protein), sequence (P09619 554-1106): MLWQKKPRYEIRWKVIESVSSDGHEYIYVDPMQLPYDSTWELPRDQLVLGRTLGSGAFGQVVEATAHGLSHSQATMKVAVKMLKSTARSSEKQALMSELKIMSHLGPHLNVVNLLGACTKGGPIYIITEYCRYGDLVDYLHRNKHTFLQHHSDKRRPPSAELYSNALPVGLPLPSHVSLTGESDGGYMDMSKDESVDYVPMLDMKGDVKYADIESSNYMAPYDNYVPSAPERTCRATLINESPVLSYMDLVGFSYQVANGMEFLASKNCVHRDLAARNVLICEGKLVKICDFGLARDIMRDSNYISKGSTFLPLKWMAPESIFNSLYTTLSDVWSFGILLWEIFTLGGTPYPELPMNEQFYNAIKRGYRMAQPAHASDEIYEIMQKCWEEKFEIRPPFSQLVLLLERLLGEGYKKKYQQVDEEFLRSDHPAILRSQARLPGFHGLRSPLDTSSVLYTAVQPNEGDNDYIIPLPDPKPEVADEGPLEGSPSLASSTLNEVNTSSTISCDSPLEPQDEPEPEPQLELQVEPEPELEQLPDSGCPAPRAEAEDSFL
VEGFR2, sequence (P35968 20-1356): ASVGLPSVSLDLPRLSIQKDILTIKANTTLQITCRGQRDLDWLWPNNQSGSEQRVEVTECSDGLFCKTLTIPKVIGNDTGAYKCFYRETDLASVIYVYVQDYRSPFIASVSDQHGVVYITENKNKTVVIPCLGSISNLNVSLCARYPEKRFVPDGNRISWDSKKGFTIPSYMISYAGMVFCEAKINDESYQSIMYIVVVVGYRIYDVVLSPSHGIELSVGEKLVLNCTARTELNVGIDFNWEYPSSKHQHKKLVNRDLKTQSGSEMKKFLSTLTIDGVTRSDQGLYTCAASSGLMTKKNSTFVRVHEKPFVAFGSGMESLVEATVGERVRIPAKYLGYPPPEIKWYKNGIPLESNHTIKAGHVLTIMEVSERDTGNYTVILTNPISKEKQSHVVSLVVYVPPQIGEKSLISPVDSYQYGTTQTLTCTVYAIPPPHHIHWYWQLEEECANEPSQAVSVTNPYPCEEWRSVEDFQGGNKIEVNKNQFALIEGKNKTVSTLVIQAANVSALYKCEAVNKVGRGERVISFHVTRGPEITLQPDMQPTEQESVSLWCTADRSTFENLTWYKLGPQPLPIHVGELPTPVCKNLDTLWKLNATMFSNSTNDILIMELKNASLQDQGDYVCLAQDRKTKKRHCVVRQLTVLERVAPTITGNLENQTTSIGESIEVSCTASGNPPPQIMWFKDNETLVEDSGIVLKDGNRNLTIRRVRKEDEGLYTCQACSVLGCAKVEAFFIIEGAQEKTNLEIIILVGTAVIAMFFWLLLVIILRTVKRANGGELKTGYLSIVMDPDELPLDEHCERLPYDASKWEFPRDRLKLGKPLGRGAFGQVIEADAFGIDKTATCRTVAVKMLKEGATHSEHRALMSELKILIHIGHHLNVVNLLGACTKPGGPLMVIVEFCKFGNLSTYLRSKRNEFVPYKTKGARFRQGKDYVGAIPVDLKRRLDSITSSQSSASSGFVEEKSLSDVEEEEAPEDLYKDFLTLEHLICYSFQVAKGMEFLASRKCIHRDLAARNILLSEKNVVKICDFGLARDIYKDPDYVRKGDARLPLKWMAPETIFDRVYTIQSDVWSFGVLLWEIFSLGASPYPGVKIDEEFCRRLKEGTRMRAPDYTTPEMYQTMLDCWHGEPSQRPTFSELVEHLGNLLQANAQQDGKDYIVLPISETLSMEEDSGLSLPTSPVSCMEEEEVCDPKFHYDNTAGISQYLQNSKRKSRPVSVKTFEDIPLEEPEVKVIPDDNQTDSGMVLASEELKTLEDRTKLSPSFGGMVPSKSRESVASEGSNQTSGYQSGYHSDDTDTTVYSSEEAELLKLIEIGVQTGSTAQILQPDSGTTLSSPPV
PDGFRβ, sequence (P09619 33-1106): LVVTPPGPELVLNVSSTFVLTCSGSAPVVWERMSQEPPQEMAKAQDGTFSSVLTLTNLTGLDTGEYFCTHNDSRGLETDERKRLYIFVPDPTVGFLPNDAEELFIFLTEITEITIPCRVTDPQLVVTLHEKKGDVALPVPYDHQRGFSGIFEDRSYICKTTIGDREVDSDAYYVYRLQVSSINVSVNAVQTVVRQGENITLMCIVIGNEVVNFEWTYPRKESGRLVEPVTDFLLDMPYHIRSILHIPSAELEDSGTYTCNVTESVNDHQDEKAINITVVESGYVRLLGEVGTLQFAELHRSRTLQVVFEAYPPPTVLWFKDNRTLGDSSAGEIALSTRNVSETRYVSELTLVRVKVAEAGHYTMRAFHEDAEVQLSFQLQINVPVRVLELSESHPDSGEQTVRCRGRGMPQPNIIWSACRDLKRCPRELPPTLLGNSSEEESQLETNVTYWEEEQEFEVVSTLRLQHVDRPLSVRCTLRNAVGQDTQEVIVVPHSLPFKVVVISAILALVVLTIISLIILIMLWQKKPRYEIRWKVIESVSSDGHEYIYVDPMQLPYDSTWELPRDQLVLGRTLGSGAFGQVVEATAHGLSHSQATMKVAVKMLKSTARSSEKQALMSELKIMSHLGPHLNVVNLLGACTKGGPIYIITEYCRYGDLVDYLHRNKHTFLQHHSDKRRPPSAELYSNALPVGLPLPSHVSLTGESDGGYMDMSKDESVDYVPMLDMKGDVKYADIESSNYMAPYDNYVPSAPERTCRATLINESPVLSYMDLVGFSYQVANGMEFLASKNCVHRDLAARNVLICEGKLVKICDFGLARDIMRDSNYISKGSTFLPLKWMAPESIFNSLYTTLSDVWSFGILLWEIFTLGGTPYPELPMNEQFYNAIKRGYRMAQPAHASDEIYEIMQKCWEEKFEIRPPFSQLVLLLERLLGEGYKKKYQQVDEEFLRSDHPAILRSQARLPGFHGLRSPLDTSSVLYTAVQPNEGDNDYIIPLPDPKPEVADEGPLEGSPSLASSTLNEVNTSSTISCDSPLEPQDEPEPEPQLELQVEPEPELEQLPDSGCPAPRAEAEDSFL

Turning to `O=C(Nc1ccc(C#Cc2ccc3nc(NC(=O)Nc4ccc(F)c(Cl)c4)cn3n2)cc1)Nc1ccc(F)c(Cl)c1` [Example 15, 1-(3-chloro-4-fluorophenyl)-3-(4-{[2-({[(3-chloro-4-fluorophenyl)amino]carbonyl}amino)imidazo[1,2-b]pyridazin-6-yl]ethynyl}phenyl)urea], the IC50 (in general, the concentration that inhibits the measured activity by half) on VEGFR2 is above 10000 nM; at PDGFRβ it was 3630 nM; in assay [1], 2930 nM; in assay [2] it was 3610 nM.

As for `O=C(Nc1ccc(C#Cc2ccc3nccn3n2)cc1)Nc1cc(C(F)(F)F)ccc1F` [Example 9, 1-[2-fluoro-5-(trifluoromethyl)phenyl]-3-[4-(imidazo[1,2-b]pyridazin-6-ylethynyl)phenyl]urea], the figures for the IC50 (at VEGFR2; in assay [1]; in assay [2]) were 8420 nM, 448 nM and 93 nM, respectively.

Regarding `O=C(Nc1ccc(C#Cc2ccc3nccn3n2)cc1)Nc1ccc(F)c(Cl)c1` [Example 5, 1-(3-chloro-4-fluorophenyl)-3-[4-(imidazo[1,2-b]pyridazin-6-ylethynyl)phenyl]urea], the half-maximal inhibitory concentration (IC50) in assay [1] stood at 96 nM.

Consider `O=C(Nc1ccccc1)Nc1ccc(C#Cc2ccc3nccn3n2)cc1` [Example 8, 1-[4-(imidazo[1,2-b]pyridazin-6-ylethynyl)phenyl]-3-phenylurea], for which the values for the IC50 (at VEGFR2; in assay [1]; in assay [2]) were 5430 nM, 267 nM and 185 nM, respectively.

On to `Cc1ccc(F)c(NC(=O)Nc2cccc(C#Cc3cccc4[nH]nc(N)c34)c2)c1` [Example 31, 1-{3-[(3-amino-1H-indazol-4-yl)ethynyl]phenyl}-3-(2-fluoro-5-methylphenyl)urea], for which the IC50 was 16 nM on VEGFR2 and 21 nM in assay [1].

In the case of `O=C(Nc1cccc(C#Cc2ccc3nccn3n2)c1)c1ccc(F)c(Cl)c1` [Example 24, 3-chloro-4-fluoro-N-[3-(imidazo[1,2-b]pyridazin-6-ylethynyl)phenyl]benzamide], the IC50 on VEGFR2 stood at 1460 nM; on PDGFRβ it was 2680 nM; in assay [1], 464 nM; in assay [2] it was 938 nM.

In the case of `O=C(Nc1cccc(C#Cc2ccc3nccn3n2)c1)c1cccc(C(F)(F)F)c1` [Example 22, N-[3-(imidazo[1,2-b]pyridazin-6-ylethynyl)phenyl]-3-(trifluoromethyl)benzamide], the IC50 turned out to be 1280 nM on VEGFR2, 1630 nM at PDGFRβ, 279 nM in assay [1] and 628 nM in assay [2].

Consider `Cc1cccc(C(=O)Nc2cccc(C#Cc3ccc4nccn4n3)c2)c1` [Example 23, N-[3-(imidazo[1,2-b]pyridazin-6-ylethynyl)phenyl]-3-methylbenzamide], for which the IC50 at VEGFR2 came to 862 nM; in assay [1], 295 nM; in assay [2], 1530 nM.

Take `Nc1cn2nc(C#Cc3ccc(NC(=O)c4ccccc4)cc3)ccc2n1` [Example 19, N-{4-[(2-aminoimidazo[1,2-b]pyridazin-6-yl)ethynyl]phenyl}benzamide]: the IC50 at VEGFR2 is above 10000 nM; at PDGFRβ, above 10000 nM; in assay [1] it was 1250 nM; in assay [2], above 10000 nM.

Regarding `Nc1ccc(C#Cc2ccc3nc(NC(=O)Nc4ccc(F)c(Cl)c4)cn3n2)cc1` [Example 14, 1-{6-[(4-aminophenyl)ethynyl]imidazo[1,2-b]pyridazin-2-yl}-3-(3-chloro-4-fluorophenyl)urea], the half-maximal inhibitory concentration (IC50) at VEGFR2 is above 10000 nM; at PDGFRβ it was 10500 nM; in assay [1] it was 1690 nM; in assay [2], 6570 nM.

For the compound `O=C(Nc1cccc(C#Cc2ccc3nccn3n2)c1)c1ccccc1` [Example 27, N-[3-(imidazo[1,2-b]pyridazin-6-ylethynyl)phenyl]benzamide], the IC50 on VEGFR2 is above 10000 nM; on PDGFRβ it was 17800 nM; in assay [1], 2360 nM; in assay [2], 27 nM.

Take `Nc1n[nH]c2cccc(C#Cc3cccc(NC(=O)Nc4ccccc4)c3)c12` [Example 32, 1-{3-[(3-amino-1H-indazol-4-yl)ethynyl]phenyl}-3-phenylurea]: the results for the 50% inhibitory concentration (IC50) (at VEGFR2; in assay [1]) were 20 nM and 41 nM, respectively.

In the case of `Cc1ccc(F)c(NC(=O)Nc2ccc(C#Cc3ccc4nccn4n3)cc2)c1` [Example 6, 1-(2-fluoro-5-methylphenyl)-3-[4-(imidazo[1,2-b]pyridazin-6-ylethynyl)phenyl]urea], in assay [1], the IC50 is 101 nM.

Regarding `Cc1ccc(F)c(NC(=O)Nc2ccccc2C#Cc2ccc3nccn3n2)c1` [Example 30, 1-(2-fluoro-5-methylphenyl)-3-[2-(imidazo[1,2-b]pyridazin-6-ylethynyl)phenyl]urea], the IC50 in assay [1] was 1800 nM; in assay [2], above 10000 nM.

On to `Cc1ccc(F)c(NC(=O)Nc2ccc(C#Cc3cccc4[nH]nc(N)c34)cc2)c1` [Example 33, 1-{4-[(3-amino-1H-indazol-4-yl)ethynyl]phenyl}-3-(2-fluoro-5-methylphenyl)urea], for which the values for the concentration for half-maximal inhibition (IC50) (at VEGFR2; in assay [1]) were 162 nM and 90 nM, respectively.

As to `Cc1ccc(F)c(NC(=O)Nc2cccc(C#Cc3ccc4nccn4n3)c2)c1` [Example 29, 1-(2-fluoro-5-methylphenyl)-3-[3-(imidazo[1,2-b]pyridazin-6-ylethynyl)phenyl]urea], the results for the IC50 in assay [1] and in assay [2] were 4700 nM and above 10000 nM, respectively.

For `Cc1ccc(NC(=O)Nc2ccc(C#Cc3ccc4nccn4n3)cc2)cc1` [Example 13, 1-[4-(imidazo[1,2-b]pyridazin-6-ylethynyl)phenyl]-3-(4-methylphenyl)urea], the IC50 in assay [2] is 67 nM.

In the case of `CC(=O)Nc1cn2nc(C#Cc3ccc(NC(=O)Nc4cccc(C)c4)cc3)ccc2n1` [Example 11, N-(6-{[4-({[(3-methylphenyl)amino]carbonyl}amino)phenyl]ethynyl}imidazo[1,2-b]pyridazin-2-yl)acetamide], the IC50 was above 10000 nM at VEGFR2, above 10000 nM at PDGFRβ and 3180 nM in assay [1].

Turning to `Cc1cccc(NC(=O)Nc2ccc(C#Cc3ccc4nc(NC(=O)C5CC5)cn4n3)cc2)c1` [Example 12, N-(6-{[4-({[(3-methylphenyl)amino]carbonyl}amino)phenyl]ethynyl}imidazo[1,2-b]pyridazin-2-yl)cyclopropanecarboxamide], the IC50 was above 10000 nM on VEGFR2, above 10000 nM on PDGFRβ and 1310 nM in assay [1].

For `O=C(Nc1ccc(C#Cc2ccc3nccn3n2)cc1)Nc1ccc(Cl)c(C(F)(F)F)c1` [Example 7, 1-[4-chloro-3-(trifluoromethyl)phenyl]-3-[4-(imidazo[1,2-b]pyridazin-6-ylethynyl)phenyl]urea], the half-inhibitory concentration (IC50) was determined as 2050 nM on VEGFR2, 127 nM in assay [1] and 43 nM in assay [2].
